Measurements as given in publication PMC3467217, “A Potent Class of GPR40 Full Agonists Engages the EnteroInsular Axis to Promote Glucose Control in Rodents” (PLoS ONE, 2012).

How the values were obtained:
[1] = test system: islets isolated from GPR40 knockout mice; experiment: GSIS assay with islets from GPR40 knock-out mice; type: cell-based, mouse
Method: (§1) Mouse islets were isolated and tested for stimulation of GSIS as described. Human islets were purchased from Prodo labs or were obtained from the National Institutes of Health and Juvenile Diabetes Research Foundation supported Islet Cell Resource Consortium (http://icr.coh.org). Islet inositol phosphate assays were performed on islets cells that had been dispersed with trypsin. 10,000 islet cells were plated/well of a 96-well plate and were loaded with ^3H-myo-inositol (0.5 µCi/well) in RPMI overnight prior to treatment. The next day, response to different stimuli was tested in HBSS containing 10 mM LiCl and 0.1% HSA (w/v) for 1 hour at 37°C. Accumulated ^3H-inositol phosphate was measured after capture to SPA beads. Islet perifusion experiments were performed on mouse islets loaded into a Brandel Suprafusion system. Twenty islets were size-matched and loaded per perifusion chamber. Islets were perifused in KRBH containing, sequentially, 3 mM glucose, then 3 mM glucose containing 10 µM drug, 16.7 mM glucose containing 10 µM drug and finally returned to 3 mM glucose containing 10 µM drug. Insulin was measured using an insulin ELISA kit (Alpco). Fetal rat intestinal cells were isolated from e19-day old fetuses of pregnant Sprague-Dawley rats. Briefly, fetal intestines were isolated and digested in HBSS buffer containing 0.5 mg/ml collagenase (Sigma), 0.5 mg/ml of hyaluronidase (Sigma) and 0.05 mg/ml of deoxyribonuclease I (Roche) for 30 minutes at 37°C. The digestion was quenched using HBSS containing 15% FBS. Fetal rat intestinal cells were washed and cultured overnight in DMEM containing 5% FBS in 96-well plates. To test for secretion of GLP-1 and GIP in response to treatments, we incubated cells for 1 hour with treatments in KRBH buffer containing 0.05% BSA (w/v). GLP-1 and GIP1 secreted into the media was measured using ELISA kits specific for GLP-1 (Linco) or GIP (Millipore).

PPAR delta = PPAR delta (Homo sapiens, UniProt Q03181); experiment: PPAR-delta luciferase reporter assay; type: cell-based; details: concentrations up to 10 µM
[2] = test system: fetal rat intestinal cells; experiment: GLP-1 secretion assay with fetal rat intestinal cells; type: cell-based; details: 1 hour
Source text: (§2) Increased GLP-1 and GIP would be expected to have additional benefits in type 2 diabetics. […] We tested for potential effects on incretin secretion in vitro by using cells isolated from fetal rat intestines.
Mouse islets were isolated and tested for stimulation of GSIS as described. Human islets were purchased from Prodo labs or were obtained from the National Institutes of Health and Juvenile Diabetes Research Foundation supported Islet Cell Resource Consortium (http://icr.coh.org). Islet inositol phosphate assays were performed on islets cells that had been dispersed with trypsin. 10,000 islet cells were plated/well of a 96-well plate and were loaded with ^3H-myo-inositol (0.5 µCi/well) in RPMI overnight prior to treatment. The next day, response to different stimuli was tested in HBSS containing 10 mM LiCl and 0.1% HSA (w/v) for 1 hour at 37°C. Accumulated ^3H-inositol phosphate was measured after capture to SPA beads. Islet perifusion experiments were performed on mouse islets loaded into a Brandel Suprafusion system. Twenty islets were size-matched and loaded per perifusion chamber. […] Insulin was measured using an insulin ELISA kit (Alpco). […] GLP-1 and GIP1 secreted into the media was measured using ELISA kits specific for GLP-1 (Linco) or GIP (Millipore).

HF/STZ mice = experiment: OGTT in high-fat fed, streptozotocin-treated (HF/STZ) type 2 diabetic mice; type: in vivo, mouse; details: OGTT; for Glucose AUC improvement: 1 hour before glucose
Method: (§3) All procedures on animals were approved by the Amgen San Francisco Institutional Animal Care and Use Committee (approved protocols #11–04 and #2007–00106). The Amgen San Francisco vivarium is an AAALAC accredited facility. Animals were housed under a 12-h light, 12-h dark cycle (lights-on 0600 h and lights-off 1800 h) and were allowed ad libidum access to chow and water. The HF/STZ mice were established as previously described. Briefly, C57BL/6j mice (Jackson labs) at 4 weeks of age were fed a high-fat diet (BioServ S1850, 35% fat) for 3-weeks and then injected with 95 mg/kg streptozotocin (Sigma) ip to induce beta cell dysfunction. The animals continued on the same high fat diet for 3–6 additional weeks. Animals were then randomized into treatment groups based on fasting blood glucose and insulin measures. NONcNZO10/LtJ (RCS10) male mice (Jackson labs) were used at 12-weeks of age and randomized for treatment based on fasting glucose levels. For OGTT experiments, drugs were formulated in 1% HPMC, 10% HPbCD, 1% Tween-80 and dosed via oral gavage. Glucose was administered at 2 g/kg 1-hour post drug dose by oral gavage.
(§4) For all glucose tolerance tests, glucose and insulin measurements were taken from tail vein samples at various time-points. Blood glucose values were measured on an Accu-Chek glucometer (Roche Diagnostics), while insulin levels were determined using an ELISA (Alpco).

GLUTag cells = experiment: Inositol phosphate accumulation assay in GLUTag enteroendocrine L-cell line; type: cell-based, mouse
Method: as §2
(§5) GPR40 aequorin, plasmid titration, and inositol phosphate assays were performed as described. For aequorin assays, in addition to transient transfection of GPR40 into CHO cells, a CHO cell line stably expressing both GPR40 and aequorin was generated. GLUTag cells were obtained under a license from Dr. Daniel Drucker, University of Toronto. Competition binding experiments were performed using membranes prepared from A9_GPR40 cells. […] Competition binding assays were carried out in 20 mM Hepes pH 7.5, 5 mM MgCl2, 100 mM NaCl and 0.1% (w/v) free fatty acid BSA and bound radioligand was collected on 96-well GF/C filter plates.

NONcNZO10/LtJ mice = experiment: OGTT in NONcNZO10/LtJ type 2 diabetic mice; type: in vivo, mouse
Method: NONcNZO10/LtJ mice retain an intact leptin pathway but contain polygenic defects contributing to moderate and mature onset obesity and diabetes, [31].
as §3, §4

[3] = rat, mouse, beagle dog and cynomolgus monkey; cited from earlier work
GPR40 = target: T1, GPR40 (Homo sapiens, UniProt O14842); experiment: Competition binding with 3H-AM-1638 on A9_GPR40 membranes; details: unlabelled competitor
T1 construct: expressed in transfected cells; host or cells: CHO cell line stably expressing GPR40 and aequorin
Method: as §5

PPAR alpha = PPAR alpha (Homo sapiens, UniProt Q07869); experiment: PPAR-alpha luciferase reporter assay; type: cell-based; details: concentrations up to 10 µM
GPR43 (FFAR2) = target: T2, GPR43 (FFAR2) (Homo sapiens, UniProt O15552); experiment: GPR43 aequorin assay; type: cell-based; details: up to 10 µM
T2 construct: expressed in transfected cells
Source text: (A) GPR41 (FFAR3) aequorin assay. GPR41 was force coupled to the calcium signaling pathway by co-transfecting the cells with Gqmyri5. (B) GPR43 (FFAR2) aequorin assay. The short chain fatty acid propionate acts as a natural agonist ligand for GPR41 and GPR43. (C) GPR120 aequorin assay. The unsaturated fatty acids α-LNN and DHA act as natural agonist ligands for GPR120. (D) PPAR-gamma luciferase assay using the thiazolidinedione rosiglitazone as a positive control. […] (TIF) Click here for additional data file.

mouse islets [4] = experiment: Mouse islet perifusion assay; type: cell-based; details: 10 µM compound
Method: as §1

human islet cells = experiment: Inositol phosphate assay with dispersed human islet cells; type: cell-based
Method: Mouse islets were isolated and tested for stimulation of GSIS as described. Human islets were purchased from Prodo labs or were obtained from the National Institutes of Health and Juvenile Diabetes Research Foundation supported Islet Cell Resource Consortium (http://icr.coh.org). Islet inositol phosphate assays were performed on islets cells that had been dispersed with trypsin. 10,000 islet cells were plated/well of a 96-well plate and were loaded with ^3H-myo-inositol (0.5 µCi/well) in RPMI overnight prior to treatment. The next day, response to different stimuli was tested in HBSS containing 10 mM LiCl and 0.1% HSA (w/v) for 1 hour at 37°C. Accumulated ^3H-inositol phosphate was measured after capture to SPA beads. Islet perifusion experiments were performed on mouse islets loaded into a Brandel Suprafusion system. Twenty islets were size-matched and loaded per perifusion chamber. Islets were perifused in KRBH containing, sequentially, 3 mM glucose, then 3 mM glucose containing 10 µM drug, 16.7 mM glucose containing 10 µM drug and finally returned to 3 mM glucose containing 10 µM drug. Insulin was measured using an insulin ELISA kit (Alpco). Fetal rat intestinal cells were isolated from e19-day old fetuses of pregnant Sprague-Dawley rats. […] GLP-1 and GIP1 secreted into the media was measured using ELISA kits specific for GLP-1 (Linco) or GIP (Millipore).

mouse islets [5] = experiment: GSIS assay in mouse islets; type: cell-based; details: 16.7 mM glucose
Method: as §1

T1 sequence (O14842 whole entry): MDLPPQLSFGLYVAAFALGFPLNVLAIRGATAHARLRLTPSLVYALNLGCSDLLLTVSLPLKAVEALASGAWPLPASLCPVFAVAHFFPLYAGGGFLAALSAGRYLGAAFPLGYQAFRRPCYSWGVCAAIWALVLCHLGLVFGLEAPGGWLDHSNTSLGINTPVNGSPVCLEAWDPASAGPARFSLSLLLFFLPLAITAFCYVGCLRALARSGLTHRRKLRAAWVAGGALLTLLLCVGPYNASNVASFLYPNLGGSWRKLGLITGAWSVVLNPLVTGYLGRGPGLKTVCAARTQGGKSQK
T2 sequence (O15552 whole entry, species assumed): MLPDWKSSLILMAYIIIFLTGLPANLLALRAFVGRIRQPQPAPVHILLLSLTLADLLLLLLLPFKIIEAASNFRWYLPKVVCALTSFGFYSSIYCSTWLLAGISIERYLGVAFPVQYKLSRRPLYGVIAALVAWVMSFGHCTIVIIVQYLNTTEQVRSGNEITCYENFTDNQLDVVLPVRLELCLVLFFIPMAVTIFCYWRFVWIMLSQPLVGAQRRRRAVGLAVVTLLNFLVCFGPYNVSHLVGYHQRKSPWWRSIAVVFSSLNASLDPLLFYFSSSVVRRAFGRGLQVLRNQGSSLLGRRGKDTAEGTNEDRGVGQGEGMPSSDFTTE
Sequence of PPAR alpha (Q07869 whole entry, species assumed): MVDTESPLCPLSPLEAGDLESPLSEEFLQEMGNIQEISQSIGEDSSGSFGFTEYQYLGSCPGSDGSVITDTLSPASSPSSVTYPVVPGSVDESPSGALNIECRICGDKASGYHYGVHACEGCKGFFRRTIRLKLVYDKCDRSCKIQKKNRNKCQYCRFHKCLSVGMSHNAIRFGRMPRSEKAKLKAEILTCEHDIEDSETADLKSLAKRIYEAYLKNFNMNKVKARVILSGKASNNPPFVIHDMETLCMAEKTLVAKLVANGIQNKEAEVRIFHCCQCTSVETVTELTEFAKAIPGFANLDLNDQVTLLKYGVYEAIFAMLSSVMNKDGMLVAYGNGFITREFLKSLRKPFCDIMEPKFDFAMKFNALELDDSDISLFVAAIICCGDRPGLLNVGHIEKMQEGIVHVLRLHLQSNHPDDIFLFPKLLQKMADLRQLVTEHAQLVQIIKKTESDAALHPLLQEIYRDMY
Sequence of PPAR delta (Q03181 whole entry): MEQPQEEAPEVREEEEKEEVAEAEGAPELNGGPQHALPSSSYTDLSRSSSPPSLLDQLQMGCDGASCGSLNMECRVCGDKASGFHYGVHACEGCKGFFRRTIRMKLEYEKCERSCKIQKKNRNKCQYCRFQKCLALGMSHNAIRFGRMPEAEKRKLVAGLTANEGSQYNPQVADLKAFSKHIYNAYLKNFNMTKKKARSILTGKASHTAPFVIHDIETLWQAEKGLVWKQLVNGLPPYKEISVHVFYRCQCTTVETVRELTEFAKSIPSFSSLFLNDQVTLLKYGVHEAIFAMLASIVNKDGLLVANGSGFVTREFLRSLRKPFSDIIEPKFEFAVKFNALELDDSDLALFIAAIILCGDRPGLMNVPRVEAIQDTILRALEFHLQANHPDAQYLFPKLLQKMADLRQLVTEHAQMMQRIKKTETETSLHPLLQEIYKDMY

Question: With `COc1ccc(F)c(-c2ccc(COc3cccc([C@@H](CC(=O)O)C4CC4)c3)cc2C2=CCCC2(C)C)c1` [AM-1638] as the compound, how does the “GSIS response of GPR40 knockout islets” value [1] read?
Answer: Its value is “did not respond”.

Question: And the “activation of PPAR delta” value (PPAR delta)?
Answer: Its value is “did not activate”.

Question: What about the “GLP-1 release in vitro” value [2] of the same compound?
Answer: Its value is “could stimulate GLP-1 release”.

Question: And the “Glucose AUC improvement” value (HF/STZ mice; 10 mg/kg oral)?
Answer: The value was 15%.

Question: And the “Glucose AUC improvement” value (HF/STZ mice; 30 mg/kg oral)?
Answer: The value was 23%.

Question: And the “Glucose AUC improvement” value (HF/STZ mice; 60 mg/kg oral)?
Answer: Its value is 35%.

Question: What about the “Glucose AUC improvement” value (HF/STZ mice; 100 mg/kg oral) of the same compound?
Answer: The value was 48%.

Question: What about the “insulin secretion, fold greater than AMG 837” value (HF/STZ mice; higher doses) of the same compound?
Answer: The value was 1.5–2.2 fold.

Question: What about the “inositol phosphate accumulation, fold increase compared to AMG 837” value (GLUTag cells) of the same compound?
Answer: The value was 3–4 fold.

Question: And the “GIP levels vs vehicle” value (NONcNZO10/LtJ mice; 60 mg/kg, 15 minutes after glucose challenge)?
Answer: Its value is “did not reach statistical significance”.

Question: What about the “insulin and GLP-1 levels 15 minutes after glucose challenge” value (NONcNZO10/LtJ mice; 60 mg/kg, vs vehicle and baseline) of the same compound?
Answer: The value was “significantly increased”.

Question: And the “Glucose AUC change as printed in figure 5B” value (NONcNZO10/LtJ mice; OGTT, 60mg/kg)?
Answer: The value was -26%.

Question: And the “Glucose AUC reduction compared to vehicle” value (NONcNZO10/LtJ mice; OGTT, single 60 mg/kg oral dose)?
Answer: The value was 26%.

Question: And the “glucose excursions during OGTT” value (NONcNZO10/LtJ mice; single 60 mg/kg oral dose)?
Answer: The value was “almost complete suppression”.

Question: And the pharmacokinetic properties [3]?
Answer: Its pharmacokinetic properties is “suitable for oral dosing”.

Question: What about the “displacement of 3H-AM-1638” value (GPR40) of the same compound?
Answer: The value was “displaced ^3H-AM-1638”.

Question: And the “activation of PPAR alpha” value (PPAR alpha)?
Answer: The value was “did not activate”.

Question: What about the “activation of GPR43 (FFAR2)” value (GPR43 (FFAR2)) of the same compound?
Answer: The value was “did not activate”.

Question: What about the “insulin stimulation compared to vehicle control” value (mouse islets [4]; 3 mM glucose) of the same compound?
Answer: The value was “neither AMG 837 nor AM-1638 stimulated insulin”.

Question: And the insulin secretion (mouse islets [4]; 16.7 mM glucose)?
Answer: The insulin secretion was “increased both first and second phase insulin secretion”.

Question: What about the “IP production efficacy, fold greater than AMG 837” value (human islet cells) of the same compound?
Answer: Its value is 8–10 ×.

Question: What about the “increase of insulin secretion, fold from that of AMG 837” value (mouse islets [5]) of the same compound?
Answer: Its value is 3–4 fold.

Question: And the EC50 (mouse islets [5]; read-out: EC50 for potentiation of insulin secretion)?
Answer: The EC50 was 990 ± 150 nM.
